Counter-ions that a name gives are not always drawn.
Biological target: T1, F Xa (bovine) (Bos taurus, UniProt P00743)
T1 construct: purchased Diagnostic Reagents Ltd, Thame, GB
Test: Inhibition of F Xa, Ki by the method of Dixon, chromogenic substrate Moc-D-Nle-Gly-Arg-pNA
Format: biochemical
Conditions: Example 2; bovine F Xa, 25° C., pH 8.0; average of at least three determinations
Description: The inhibitory effect was determined by incubating 200 μl of Tris buffer (0.05 M, 0.154 M NaCI, 5% ethanol, pH 8.0; contains the inhibitor), 25 μl of substrate (Moc-D-Nle-Gly-Arg-pNA in H2O; Pentapharm Ltd., Basel, Switzerland) and 50 μl of F Xa (bovine, Diagnostic Reagents Ltd, Thame, GB) at 25° C. After 3 min, the reaction was stopped by adding 25 μl of acetic acid (50%), and the absorption at 405 nm was determined using a microplate reader (MR 5000, Dynatech, Denkendorf, Germany). The Ki values were found by the method of Dixon (Biochem. J. 55, 170-171, 1953) by linear regression using a computer program. The Ki values are the average of at least three determinations.

T1 sequence (P00743 234-492 limits assumed): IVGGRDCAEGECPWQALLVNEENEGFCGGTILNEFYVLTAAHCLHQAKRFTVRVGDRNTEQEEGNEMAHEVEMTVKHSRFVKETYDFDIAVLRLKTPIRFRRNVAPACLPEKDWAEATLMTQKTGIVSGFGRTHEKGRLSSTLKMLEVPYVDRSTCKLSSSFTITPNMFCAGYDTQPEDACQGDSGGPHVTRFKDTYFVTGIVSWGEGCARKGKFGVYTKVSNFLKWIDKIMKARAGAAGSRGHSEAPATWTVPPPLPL
T1 sequence (P00743 41-180 partner limits assumed): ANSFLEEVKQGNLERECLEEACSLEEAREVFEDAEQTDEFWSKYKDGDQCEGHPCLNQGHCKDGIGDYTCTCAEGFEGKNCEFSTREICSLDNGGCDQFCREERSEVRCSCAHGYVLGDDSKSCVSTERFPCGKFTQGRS

Ki [nM]	Compound
50	CC(C)(C)OC[C@@H](NS(=O)(=O)Cc1ccccc1)C(=O)NCC(=O)NCc1ccc(C(=N)N)cc1 [Bzl—SO2 D CH2—O—tBu H CH2 CH2, Benzylsulfonyl-D-Ser(tBu)-Gly 4-amidinobenzylamide]
250	CC(C)(C)OC[C@@H](NS(=O)(=O)Cc1ccccc1)C(=O)N[C@@H](CCC(=O)O)C(=O)NCc1ccc(C(=N)N)cc1 [Bzl—SO2 D CH2—O—tBu H CH—(CH2)2—COOH CH2, Benzylsulfonyl-D-Ser(tBu)-Glu 4-amidinobenzylamide×TFA]
1200	CC(C)(C)OC[C@@H](NS(=O)(=O)Cc1ccccc1)C(=O)NC(CC(=O)O)C(=O)NCc1ccc(C(=N)N)cc1 (stereo partly drawn) [Bzl—SO2 D CH2—O—tBu H CH—CH2—COOH CH2]

Same assay, conditions: Example 4; inhibition of factor Xa by inhibitors of formula I

Ki [nM]	Compound
88	CC(C)(C)OC[C@@H](NS(=O)(=O)CCc1ccccc1)C(=O)NCC(=O)NCc1ccc(C(=N)N)cc1 [compound 17]
140	CC(C)(C)OC[C@@H](NS(=O)(=O)Cc1ccccc1C(=O)O)C(=O)NCC(=O)NCc1ccc(C(=N)N)cc1 [compound 20]
160	COC(=O)c1ccc(CS(=O)(=O)N[C@H](COC(C)(C)C)C(=O)NCC(=O)NCc2ccc(C(=N)N)cc2)cc1 [compound 21]
170	CC(C)(C)OC[C@@H](NS(=O)(=O)Cc1ccncc1)C(=O)NCC(=O)NCc1ccc(C(=N)N)cc1 [compound 22]
170	CC(C)(C)OC[C@@H](NS(=O)(=O)Cc1ccc(CC(=O)O)cc1)C(=O)NCC(=O)NCc1ccc(C(=N)N)cc1 [compound 23]
260	N=C(N)c1ccc(CNC(=O)CNC(=O)[C@@H](Cc2ccc(C(=N)N)cc2)NS(=O)(=O)Cc2ccccc2)cc1 [compound 26]
270	CC(C)(C)OCC(NS(=O)(=O)Cc1ccc(C(=O)O)cc1)C(=O)NC(CO)C(=O)NCc1ccc(C(=N)N)cc1 (stereo not drawn) [compound 27]
280	CC(C)(C)OC[C@@H](NS(=O)(=O)CCc1cccc2ccccc12)C(=O)NCC(=O)NCc1ccc(C(=N)N)cc1 [compound 28]
670	N=C(N)c1ccc(CNC(=O)CNC(=O)[C@@H](Cc2c[nH]cn2)NS(=O)(=O)Cc2ccccc2)cc1 [compound 32]
26000	CC(C)(C)OC[C@@H](NS(=O)(=O)Cc1ccccc1)C(=O)NCC(=O)NCc1ccc(C(N)=NO)cc1 [compound 33]

The next lines start with the compound.

Compound	Ki [nM]
4-(Aminomethyl)benzylsulfonyl-dSer(tBu)-Gly 4-amidinobenzylamide×2 TFA [Example 7]	29
CC(C)(C)OC[C@@H](NS(=O)(=O)Cc1ccccc1)C(=O)N[C@@H](CCC(=O)O)C(=O)NCc1ccc(C(=N)N)cc1 [Bzl—SO2 D CH2—O—tBu H CH—(CH2)2—COOH CH2, Benzylsulfonyl-D-Ser(tBu)-Glu 4-amidinobenzylamide×TFA]	6.5
N=C(N)c1ccc(CNC(=O)CNC(=O)[C@@H](Cc2cccc(C(=N)N)c2)NS(=O)(=O)Cc2ccccc2)cc1 [No. 1, Benzylsulfonyl-dPhe(3-amidino)-Gly 4-(amidino)benzylamide×2 TFA]	34
CC(C)(C)OC[C@@H](NS(=O)(=O)Cc1ccccc1)C(=O)N[C@@H](CO)C(=O)NCc1ccc(C(=N)N)cc1 [No. 11, Bzls-dSer(tBu)-Ser 4-(amidino)benzylamide×TFA]	28
CC(C)(C)OC[C@@H](NS(=O)(=O)Cc1cccc(C(=O)O)c1)C(=O)NCC(=O)NCc1ccc(C(=N)N)cc1 [No. 19, 3-(HOOC)Benzylsulfonyl-dSer(tBu)-Gly 4-amidinobenzylamide×TFA]	27
N=C(N)NCCC[C@@H](NS(=O)(=O)CC1CCCCC1)C(=O)NCC(=O)NCc1ccc(C(=N)N)cc1 [compound 2]	6.7
CC(C)(C)OC[C@@H](NS(=O)(=O)Cc1ccc(Cl)cc1)C(=O)NCC(=O)NCc1ccc(C(=N)N)cc1 [compound 3]	14
CC(C)(C)OC[C@@H](NS(=O)(=O)Cc1ccc(F)cc1)C(=O)NCC(=O)NCc1ccc(C(=N)N)cc1 [compound 9]	36
CC(C)(C)OC[C@@H](NS(=O)(=O)Cc1ccc(C(=O)O)cc1)C(=O)NCC(=O)NCc1ccc(C(=N)N)cc1 [compound 10]	53
CC(C)(C)OC[C@@H](NS(=O)(=O)Cc1ccccc1)C(=O)N[C@@H](CO)C(=O)NCc1ccc(C(=N)N)cc1 [compound 11]	54
CC(C)(C)OC[C@@H](NS(=O)(=O)Cc1ccc(C#N)cc1)C(=O)NCC(=O)NCc1ccc(C(=N)N)cc1 [compound 12]	65
N=C(N)c1ccc(CNC(=O)C(CCCCN)NC(=O)C(CC2CCCCC2)NS(=O)(=O)Cc2ccccc2)cc1 (stereo not drawn) [compound 13]	67
COC(=O)Cc1ccc(CS(=O)(=O)N[C@H](COC(C)(C)C)C(=O)NCC(=O)NCc2ccc(C(=N)N)cc2)cc1 [compound 14]	70
CC(C)(C)OC[C@@H](NS(=O)(=O)Cc1ccc2ccccc2c1)C(=O)NCC(=O)NCc1ccc(C(=N)N)cc1 [compound 15]	78
CC(C)(C)OC[C@@H](NS(=O)(=O)Cc1ccc(Cl)c(Cl)c1)C(=O)NCC(=O)NCc1ccc(C(=N)N)cc1 [compound 16]	83
CC(C)(C)OC[C@@H](NS(=O)(=O)Cc1cccc(C(=O)O)c1)C(=O)NCC(=O)NCc1ccc(C(=N)N)cc1 [compound 19]	130

Biological target: F Xa
Test: not given
Conditions: values from cited literature; cited from earlier work

Compound	Ki [nM]
N=C(N)c1ccc(C=C2CCCCC(=Cc3ccc(C(=N)N)cc3)C2=O)cc1 [BABCH]	13

Reference: patent US20050119190A1, “Inhibitors of the blood-clotting factor xa, production thereof and use of the same” (priority 2002, published 2005)
